In patent US5089623A, “Certain imidate insecticides” (Imperial Chemical Industries Plc, priority 1990, dated 1992):

How the values were obtained:
Type in all cases: in vivo
[1] = system: Tobacco Budworm [Heliothis virescens (Fabricius)] eggs; assay: Tobacco budworm egg test (TBW-E); conditions: percent in solution
[2] = system: Housefly [Musca domestica]; assay: Housefly insecticidal test (HF); conditions: per 25 female houseflies, 48 hours
[3] = system: Maize weevil [Sitophilus Zeamais (Motschulsky)]; assay: Maize weevil test (MW); conditions: adult weevils, treated corn seeds, 48 hours, percent in solution
Method: The compounds in Tables 1 and 2 above were tested for insecticidal activity using the following testing procedures. LC50 values, based on the results of these tests and calculated according to dosage-mortality curves, are expressed in Table 3.
Maize weevil [Sitophilus Zeamais (Motschulsky)]
Test compounds were diluted in a 50:50 acetone:water solution. Four corn seeds [Zea mays (L.)] which had been immersed in test solutions for 2-3 seconds and allowed to dry were placed in containers together with 10 adult weevils. The containers were covered and kept at a temperature of about 25° C. Mortality was recorded after 48 hours. Test concentrations ranged from 0.01% down to that at which 50% mortalilty occurred. The LC50 values are expressed below in Table 3 under the heading "MW" in terms of percent of the test compound in solution.

[4] = system: Cabbage Looper [Trichoplusia ni (Hubner)]; assay: Cabbage looper test (CL); conditions: second-instar larvae, 3-5 days, percent in solution

Row | SMILES | LC50 TBW E [1] [%] | LC50 HF [2] [µg] | LC50 MW [3] [%] | LC50 CL [4] [%]
1 | Cc1ccc(N=C(OCc2cccc(Oc3ccc(Cl)cc3)c2)C(C)C)cc1Cl [Compound 403] | > 0.1 | < 100 | > 0.01 | > 0.1
2 | CC(C)C(=Nc1c(F)c(F)cc(F)c1F)OCc1cccc(Oc2ccc(F)cc2)c1 [Compound 304] | > 0.1 | > 100 | > 0.01 | 0.0024
3 | CC(C)C(=Nc1ccc(Cl)cc1)OCc1cccc(Oc2ccccc2)n1 [Compound 553] | 0.1 | < 100 | > 0.01 | < 0.1
4 | CC(C)C(=Nc1ccc(Cl)cc1)OCc1cccc(Oc2ccc(Cl)cc2)n1 [Compound 554] | 0.04 | > 100 | > 0.01 | 0.00075
5 | Fc1ccc(COC(=Nc2ccc(C(F)(F)F)cc2)C2CC2)cc1Oc1ccccc1 [Compound 443] | 0.017 | < 100 | < 0.01 | 0.00015
6 | CC(C)(C)C(=Nc1cccc(C(F)(F)F)c1)OCc1cccc(Oc2ccccc2)c1 [Compound 88] | > 0.1 | > 100 | > 0.01 | 0.018
7 | CC(C)C(=Nc1ccc(C(F)(F)F)cc1Cl)OCc1ccc(F)c(Oc2ccccc2)c1 [Compound 428] | > 0.1 | > 100 | > 0.01 | 0.0017
8 | CC(C)C(=Nc1cccc(I)c1)OCc1cccc(Oc2ccc(Cl)cc2)c1 [Compound 389] | > 0.1 | < 100 | > 0.01 | 0.00069
9 | CC(C)C(=Nc1ccc(F)c(Br)c1)OCc1ccc(F)c(Oc2ccccc2)c1 [Compound 299] | 0.017 | 8 | > 0.01 | 0.0005
10 | CC(C)C(=Nc1cccc(Br)c1)OCc1ccc(F)c(Oc2ccc(Cl)cc2)c1 [Compound 386] | > 0.1 | < 100 | > 0.01 | 0.0012
11 | CC(C)C(=Nc1ccc(I)c(Cl)c1)OCc1cccc(Oc2ccc(Cl)cc2)n1 [Compound 471] | 0.018 | < 100 | > 0.01 | 0.00018
12 | CC(C)C(=Nc1cccc(C(F)(F)F)c1)OCc1cc(Oc2ccccc2)ccn1 [Compound 506] | > 0.1 | 40 | > 0.01 | 0.005
13 | CC(C)C(=Nc1ccc(F)c(I)c1)OCc1cccc(Oc2ccc(F)cc2)c1 [Compound 449] | 0.025 | 13 | 0.0075 | 0.0001
14 | CCc1ccc(N=C(OCc2cccc(Oc3ccc(Cl)cc3)n2)C(C)C)cc1 [Compound 552] | > 0.1 | > 100 | > 0.01 | 0.0016
15 | CC(C)C(=Nc1ccc(OCC(F)(F)F)c(Cl)c1)OCc1cccc(Oc2ccc(F)cc2)c1 [Compound 420] | 0.05 | > 100 | > 0.01 | 0.00075
16 | CC(C)C(=Nc1cccc(C(F)(F)F)c1)OCc1cccc(Oc2ccc(Cl)cc2)n1 [Compound 477] | > 0.1 | 20 | 0.0076 | 0.0003

Row | SMILES | LC50 TBW E [1] [%] | LC50 HF [2] [µg] | LC50 MW [3] [%] | LC50 CL [4] [%]
17 | CC(C)C(=Nc1ccc(F)c(Cl)c1)OCc1ccnc(Oc2ccc(F)cc2)c1 [Compound 511] | > 0.1 | 89 | > 0.01 | 0.0012
18 | C=C(C)C(=Nc1ccc(C(F)(F)F)cc1)OCc1cccc(Oc2ccccc2)c1 [Compound 430] | 0.032 | < 100 | 0.004 | 0.001
19 | CC(C)C(=Nc1ccc(C#N)cc1)OCc1ccc(F)c(Oc2ccc(Cl)cc2)c1 [Compound 392] | 0.039 | < 100 | > 0.01 | 0.00034
20 | CC(C)C(=Nc1ccc(S(C)(=O)=O)cc1)OCc1ccc(F)c(Oc2ccc(F)cc2)c1 [Compound 414] | > 0.1 | < 100 | > 0.01 | 0.0024
21 | CC(C)C(=Nc1ccc(C(F)(F)F)cc1[N+](=O)[O-])OCc1ccc(F)c(Oc2ccccc2)c1 [Compound 445] | > 0.1 | < 100 | > 0.01 | 0.00045
22 | C=C(C)C(=Nc1ccc(C(F)(F)F)cc1)OCc1cccc(Oc2ccc(Cl)cc2)n1 [Compound 560] | < 0.1 | < 100 | > 0.01 | 0.0015
23 | CCc1ccc(N=C(OCc2cccc(Oc3ccc(F)cc3)c2)C(C)C)cc1Cl [Compound 438] | < 0.1 | > 100 | > 0.01 | 0.0009
24 | CCc1ccc(N=C(OCc2cccc(Oc3ccccc3)c2)C(C)(C)C)cc1 [Compound 163] | > 0.1 | > 100 | > 0.01 | 0.004
25 | CC(C)C(=Nc1ccc(OCC(F)(F)F)c(Cl)c1)OCc1ccc(F)c(Oc2ccccc2)c1 [Compound 424] | 0.035 | > 100 | > 0.01 | 0.00038
26 | CCc1ccccc1N=C(OCc1cccc(Oc2ccc(F)cc2)c1)C(C)C [Compound 411] | > 0.1 | < 100 | > 0.01 | > 0.1
27 | CC(C)C(=Nc1cccc(C(F)(F)F)c1)OCc1ccnc(Oc2ccc(F)cc2)c1 [Compound 508] | > 0.1 | > 100 | > 0.01 | 0.013
28 | CC(C)C(=Nc1ccc(F)c(I)c1)OCc1ccc(F)c(Oc2ccccc2)c1 [Compound 334] | 0.013 | 9 | > 0.01 | 0.0007
29 | Cc1ccc(N=C(OCc2cccc(Oc3ccc(F)cc3)c2)C(C)C)cc1Cl [Compound 402] | > 0.1 | < 100 | > 0.01 | > 0.1
30 | CC(C)C(=Nc1ccc(OCC(F)(F)F)c(Cl)c1)OCc1cccc(Oc2ccccc2)c1 [Compound 425] | > 0.1 | > 100 | > 0.01 | 0.00075
31 | CC(C)C(=Nc1ccc(OCC(F)(F)F)cc1)OCc1ccc(F)c(Oc2ccccc2)c1 [Compound 422] | 0.05 | < 100 | > 0.01 | 0.00075
32 | COc1ccc(Oc2cccc(COC(=Nc3ccc(C(C)(C)C)cc3)C(C)C)c2)cc1 [Compound 345] | > 0.1 | > 100 | > 0.01 | 0.018
